Measured values reported in PubChem BioAssay AID248 (DTP/NCI, 2004).
Values joined by “and” are separate entries in the source; they are usually repeats but may differ in a detail not shown here. Equal values may be shown once. Inconclusive results and toxic doses are left out. No stated cut-off is given here; in the data, active means T/C of 150% or more; inactive means T/C below 125%.

Test system: L1210 leukemia ip in BDF1 mice, survival T/C
Experiment: NCI In Vivo Anticancer Drug Screen. Data for tumor model L1210 Leukemia (intraperitoneal) in B6D2F1 (BDF1) mice
Conditions: higher = longer survival
How it was run: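 Read-out is survival time, reported as the treated-group measurement over the vehicle-control measurement.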

[1] = endpoint: mean survival time, dose: 100.0 mg/kg/injection, schedule: Q04DX003 (ip), vehicle: saline with Tween-80
[2] = endpoint: mean survival time, dose: 200.0 mg/kg/injection, schedule: Q04DX003 (ip), vehicle: saline with Tween-80
[3] = endpoint: mean survival time, dose: 400.0 mg/kg/injection, schedule: Q04DX003 (ip), vehicle: saline with Tween-80
[4] = endpoint: mean survival time, dose: 50.0 mg/kg/injection, schedule: Q01DX001 (ip), vehicle: saline
[5] = endpoint: mean survival time, dose: 100.0 mg/kg/injection, schedule: Q01DX009 (ip), vehicle: Klucel (hydroxypropylcellulose) (HPC)
[6] = endpoint: mean survival time, dose: 100.0 mg/kg/injection, schedule: Q04DX003 (ip), vehicle: Klucel (hydroxypropylcellulose) (HPC)
[7] = endpoint: mean survival time, dose: 200.0 mg/kg/injection, schedule: Q01DX009 (ip), vehicle: Klucel (hydroxypropylcellulose) (HPC)
[8] = endpoint: mean survival time, dose: 200.0 mg/kg/injection, schedule: Q04DX003 (ip), vehicle: Klucel (hydroxypropylcellulose) (HPC)
[9] = endpoint: mean survival time, dose: 400.0 mg/kg/injection, schedule: Q01DX009 (ip), vehicle: Klucel (hydroxypropylcellulose) (HPC)
[10] = endpoint: mean survival time, dose: 400.0 mg/kg/injection, schedule: Q04DX003 (ip), vehicle: Klucel (hydroxypropylcellulose) (HPC)
[11] = endpoint: mean survival time, dose: 100.0 mg/kg/injection, schedule: Q04DX003 (ip), vehicle: saline
[12] = endpoint: mean survival time, dose: 200.0 mg/kg/injection, schedule: Q04DX003 (ip), vehicle: saline
[13] = endpoint: mean survival time, dose: 400.0 mg/kg/injection, schedule: Q04DX003 (ip), vehicle: saline
[14] = endpoint: mean survival time, dose: 100.0 mg/kg/injection, schedule: Q01DX009 (ip), vehicle: saline with Tween-80
[15] = endpoint: mean survival time, dose: 200.0 mg/kg/injection, schedule: Q01DX009 (ip), vehicle: saline with Tween-80
[16] = endpoint: mean survival time, dose: 50.0 mg/kg/injection, schedule: Q01DX009 (ip), vehicle: saline
[17] = endpoint: mean survival time, dose: 100.0 mg/kg/injection, schedule: Q01DX009 (ip), vehicle: saline
[18] = endpoint: mean survival time, dose: 200.0 mg/kg/injection, schedule: Q01DX009 (ip), vehicle: saline
[19] = endpoint: mean survival time, dose: 50.0 mg/kg/injection, schedule: Q04DX003 (ip), vehicle: saline

Measured: T/C

CCCCNC(=O)C1C2C=CC(C2)C1C(=O)NCCCC (stereo not drawn)
inactive: [1] 96 % of control | [2] 96 % of control | [3] 91 % of control

CON(C)c1nc2ccccc2o1
inactive: [4] 103 % of control | endpoint: mean survival time, dose: 100.0 mg/kg/injection, schedule: Q01DX001 (ip), vehicle: saline 100 % of control | endpoint: mean survival time, dose: 200.0 mg/kg/injection, schedule: Q01DX001 (ip), vehicle: saline 100 % of control | endpoint: mean survival time, dose: 400.0 mg/kg/injection, schedule: Q01DX001 (ip), vehicle: saline 100 % of control

CNC(=O)C(C)(C)c1ccccc1
inactive: [5] 97 % of control | [6] 96 % of control | [7] 95 % of control | [8] 95 % of control | [9] 97 % of control | [10] 95 % of control

COc1ccc(NC(=O)Nc2ccccc2Cl)cc1
inactive: [5] 96 % of control | [6] 90 % of control | [7] 95 % of control | [8] 92 % of control | [9] 91 % of control | [10] 90 % of control

CN(C)C1(Cc2ccccc2)c2ccccc2-c2ccccc21
inactive: endpoint: mean survival time, dose: 50.0 mg/kg/injection, schedule: Q04DX002 (ip), vehicle: Klucel (hydroxypropylcellulose) (HPC) 103 % of control | endpoint: mean survival time, dose: 100.0 mg/kg/injection, schedule: Q04DX002 (ip), vehicle: Klucel (hydroxypropylcellulose) (HPC) 106 % of control | endpoint: mean survival time, dose: 200.0 mg/kg/injection, schedule: Q04DX002 (ip), vehicle: Klucel (hydroxypropylcellulose) (HPC) 95 % of control

COc1ccc(CC(=O)O)c(OC)c1
inactive: endpoint: mean survival time, dose: 100.0 mg/kg/injection, schedule: Q01DX007 (ip), vehicle: saline with Tween-80 98 % of control | [11] 94 % of control | endpoint: mean survival time, dose: 200.0 mg/kg/injection, schedule: Q01DX007 (ip), vehicle: saline with Tween-80 95 % of control | [12] 99 % of control | [13] 94 % of control

CNC(=O)c1ccccc1C(O)(c1ccccc1)c1ccccc1
inactive: [5] 95 % of control | [6] 94 % of control | [7] 98 % of control | [8] 97 % of control | [9] 101 % of control | [10] 90 % of control

CC(=O)OC1CC2C=CC1C2 (stereo not drawn)
inactive: [14] 93 % of control | [15] 91 % of control | endpoint: mean survival time, dose: 400.0 mg/kg/injection, schedule: Q01DX009 (ip), vehicle: saline with Tween-80 86 % of control

CN(Cc1cnc2nc(N)nc(N)c2n1)c1ccc(C(=O)NC(CCC(=O)O)C(=O)O)cc1F (stereo not drawn)
active: endpoint: median survival time, dose: 1.25 mg/kg/injection, schedule: Q01DX009 (ip), vehicle: other 150 % of control | endpoint: median survival time, dose: 2.5 mg/kg/injection, schedule: Q01DX009 (ip), vehicle: other 161 % of control

Cc1ccc(Oc2ccc([N+](=O)[O-])cc2[N+](=O)[O-])cc1C
inactive: endpoint: mean survival time, dose: 222.0 mg/kg/injection, schedule: Q01DX Z (ip), vehicle: methylcellulose (MC) 90 % of control | endpoint: mean survival time, dose: 333.0 mg/kg/injection, schedule: Q01DX Z (ip), vehicle: methylcellulose (MC) 92 % of control | endpoint: mean survival time, dose: 500.0 mg/kg/injection, schedule: Q01DX Z (ip), vehicle: methylcellulose (MC) 92 % of control

CCCCc1c(N)nc(N)nc1-c1ccccc1
inactive: endpoint: mean survival time, dose: 100.0 mg/kg/injection, schedule: Q01DX001 (ip), vehicle: Klucel (hydroxypropylcellulose) (HPC) 112 % of control | endpoint: mean survival time, dose: 200.0 mg/kg/injection, schedule: Q01DX001 (ip), vehicle: Klucel (hydroxypropylcellulose) (HPC) 105 % of control | endpoint: mean survival time, dose: 400.0 mg/kg/injection, schedule: Q01DX001 (ip), vehicle: Klucel (hydroxypropylcellulose) (HPC) 94 % of control

CCCCO.[Sn]
inactive: [16] 99 % of control and 109 % of control | [17] 96 % of control and 109 % of control | [18] 99 % of control and 106 % of control

O=C1C=C(N2CC2)C(=O)C=C1N1CC1
inactive: endpoint: mean survival time, dose: 0.62 mg/kg/injection, schedule: Q01DX001 (ip), vehicle: other 105 % of control | endpoint: mean survival time, dose: 1.25 mg/kg/injection, schedule: Q01DX001 (ip), vehicle: other 117 % of control | endpoint: mean survival time, dose: 2.5 mg/kg/injection, schedule: Q01DX001 (ip), vehicle: other 107 % of control

Cc1cccc(NC(=O)C(Br)C(Br)c2ccccc2)c1C (stereo not drawn)
inactive: [5] 94 % of control | [7] 105 % of control | [9] 105 % of control

CC1=C(C)C(=O)c2c(OC(=O)c3ccccc3)ccc(OC(=O)c3ccccc3)c2C1=O
inactive: endpoint: mean survival time, dose: 12.5 mg/kg/injection, schedule: Q01DX009 (ip), vehicle: saline 100 % of control | endpoint: mean survival time, dose: 25.0 mg/kg/injection, schedule: Q01DX009 (ip), vehicle: saline 99 % of control | [16] 92 % of control | [19] 95 % of control | [17] 92 % of control | [11] 98 % of control and 91 % of control | [18] 87 % of control | [12] 90 % of control | [13] 92 % of control and 91 % of control

[Cl][Sn]([Cl])([c]1ccccc1)[c]1ccccc1
inactive: endpoint: mean survival time, dose: 12.5 mg/kg/injection, schedule: Q01DX001 (ip), vehicle: saline 108 % of control | endpoint: mean survival time, dose: 25.0 mg/kg/injection, schedule: Q01DX001 (ip), vehicle: saline 96 % of control | [4] 100 % of control

CC(C)(Br)C(=O)c1ccc(Cl)s1
inactive: [1] 96 % of control | [2] 107 % of control | [3] 105 % of control

CCCC(C)OP(=O)(OCC)OCC (stereo not drawn)
inactive: [5] 94 % of control | [7] 100 % of control

Nc1nc(N)c2nc(CNCCc3ccccc3)cnc2n1
inactive: endpoint: mean survival time, dose: 20.0 mg/kg/injection, schedule: Q01DX009 (ip), vehicle: Klucel (hydroxypropylcellulose) (HPC) 100 % of control | endpoint: mean survival time, dose: 40.0 mg/kg/injection, schedule: Q01DX009 (ip), vehicle: Klucel (hydroxypropylcellulose) (HPC) 102 % of control

O=C(NCc1ccccc1)C1C2CC3OC(=O)C1C3C2 (stereo not drawn)
inactive: [1] 98 % of control | [11] 123 % of control | [2] 95 % of control | [12] 104 % of control | [3] 95 % of control | [13] 104 % of control

O=C(Nc1ccc(Cl)cc1Cl)Oc1ccc(F)cc1
inactive: endpoint: mean survival time, dose: 50.0 mg/kg/injection, schedule: Q01DX009 (ip), vehicle: saline with Tween-80 94 % of control | [14] 94 % of control | [15] 102 % of control

O=P(Oc1ccccc1)(N1CCCC1)N1CCCC1
inactive: [16] 100 % of control | [17] 91 % of control | endpoint: mean survival time, dose: 100.0 mg/kg/injection, schedule: Q04DX002 (ip), vehicle: saline 100 % of control | [18] 98 % of control | endpoint: mean survival time, dose: 200.0 mg/kg/injection, schedule: Q04DX002 (ip), vehicle: saline 95 % of control

Cc1nc(N)sc1C
inactive: endpoint: mean survival time, dose: 25.0 mg/kg/injection, schedule: Q04DX002 (ip), vehicle: saline with Tween-80 100 % of control | endpoint: mean survival time, dose: 25.0 mg/kg/injection, schedule: Q04DX003 (ip), vehicle: saline 89 % of control | endpoint: mean survival time, dose: 50.0 mg/kg/injection, schedule: Q04DX002 (ip), vehicle: saline with Tween-80 102 % of control | [19] 100 % of control | endpoint: mean survival time, dose: 75.0 mg/kg/injection, schedule: Q01DX001 (ip), vehicle: carboxymethylcellulose (CMC) 100 % of control | [11] 102 % of control | endpoint: mean survival time, dose: 150.0 mg/kg/injection, schedule: Q01DX001 (ip), vehicle: carboxymethylcellulose (CMC) 102 % of control | endpoint: mean survival time, dose: 300.0 mg/kg/injection, schedule: Q01DX001 (ip), vehicle: carboxymethylcellulose (CMC) 100 % of control

NC(=O)Cn1cnc2cncnc21
inactive: [1] 103 % of control | [2] 111 % of control | [3] 99 % of control

CCC1(O)CC(OC2CC(NC)C(OC3CC(O)C(OC4CC(O)C(O)C(C)O4)C(C)O3)C(C)O2)c2c(cc3c(c2O)C(=O)c2c(O)ccc(O)c2C3=O)C1C(=O)OC (stereo not drawn)
inactive: endpoint: mean survival time, dose: 1.6 mg/kg/injection, schedule: Q01DX001 (ip), vehicle: saline 101 % of control | endpoint: mean survival time, dose: 3.2 mg/kg/injection, schedule: Q01DX001 (ip), vehicle: saline 108 % of control | endpoint: mean survival time, dose: 6.4 mg/kg/injection, schedule: Q01DX001 (ip), vehicle: saline 124 % of control | endpoint: mean survival time, dose: 12.8 mg/kg/injection, schedule: Q01DX001 (ip), vehicle: saline 117 % of control | endpoint: mean survival time, dose: 25.6 mg/kg/injection, schedule: Q01DX001 (ip), vehicle: saline 114 % of control

[CH3][Pb]([CH3])([CH3])[O]C(=O)c1ccc([N+](=O)[O-])cc1
inactive: endpoint: mean survival time, dose: 12.5 mg/kg/injection, schedule: Q04DX002 (ip), vehicle: Klucel (hydroxypropylcellulose) (HPC) 97 % of control
